From US9499502B2, “5-substituted iminothiazines and their mono- and dioxides as BACE inhibitors, compositions, and their use” (Merck Sharp & Dohme Corp., priority 2011, dated 2016)

Biological target: soluble human BACE1 catalytic domain (Homo sapiens (Human), UniProt P56817)
Experiment: BACE1 HTRF FRET Assay
Conditions: BACE1 Ki (nM)

soluble human BACE1 catalytic domain, sequence (P56817 75-416): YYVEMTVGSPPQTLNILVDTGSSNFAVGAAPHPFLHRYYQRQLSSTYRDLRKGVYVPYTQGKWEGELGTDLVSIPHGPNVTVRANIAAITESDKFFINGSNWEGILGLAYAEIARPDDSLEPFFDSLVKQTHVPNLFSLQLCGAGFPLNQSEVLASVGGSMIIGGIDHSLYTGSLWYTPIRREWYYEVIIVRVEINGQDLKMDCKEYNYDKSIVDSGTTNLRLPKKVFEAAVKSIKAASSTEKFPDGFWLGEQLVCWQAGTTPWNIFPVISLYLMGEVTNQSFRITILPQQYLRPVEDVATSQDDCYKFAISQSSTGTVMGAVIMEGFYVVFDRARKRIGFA

Ki | SMILES
791 nM | C[C@@]1(c2sc(-c3nnc(-c4ccc(Cl)cc4)o3)cc2F)CS(=O)(=O)[C@@](C)(c2ccccn2)C(=N)N1 [Example 27bz-b]

Same assay, conditions: read-out: BACE1 Ki

Ki | SMILES
163 nM | C[C@]1(CC2CCOCC2)C(=N)N[C@](C)(c2sc(-c3cncc(C#N)c3)cc2Cl)CS1(=O)=O [Example 27bw]
29.5 nM | C[C@]1(CC(F)(F)F)C(=N)N[C@](C)(c2sc(-c3nnc(-c4ccc(Cl)cc4)o3)cc2F)CS1(=O)=O [Example 27by-a]
450 nM | C[C@@]1(c2sc(-c3nnc(-c4ccc(Cl)cc4)o3)cc2F)CS(=O)(=O)[C@](C)(CC(F)(F)F)C(=N)N1 [Example 27by-b]
51 nM | C[C@@]1(c2sc(-c3nnc(-c4ccc(Cl)cc4)o3)cc2F)CS(=O)(=O)[C@@](C)(c2ccccn2)C(=N)N1 [Example 27bz-a]
1180 nM | CC1(C)C(=N)N[C@](C)(c2sc(-c3cc4ccccc4s3)cc2Cl)CS1(=O)=O [Example 27f]
2030 nM | CC1(C)C(=N)N[C@](C)(c2sc(-c3csc4ccccc34)cc2Cl)CS1(=O)=O [Example 27g]
70.9 nM | CC1(C)C(=N)N[C@](C)(c2sc(-c3cccc(OC(F)(F)F)c3)cc2Cl)CS1(=O)=O [Example 27h]
170 nM | CC1(C)C(=N)N[C@](C)(c2sc(-c3cc(F)cc(F)c3)cc2Cl)CS1(=O)=O [Example 27i]
5150 nM | CC1(C)C(=N)N[C@](C)(c2sc(-c3ccc(F)c(C#N)c3)cc2Cl)CS1(=O)=O [Example 27j]
926 nM | COc1cc(-c2cc(Cl)c([C@]3(C)CS(=O)(=O)C(C)(C)C(=N)N3)s2)ccn1 [Example 27k]
5340 nM | CC1(C)C(=N)N[C@](C)(c2sc(-c3cnn4c3CCC4)cc2Cl)CS1(=O)=O [Example 27m]
273 nM | CC1(C)C(=N)N[C@](C)(c2sc(-c3ccn4ncnc4c3)cc2Cl)CS1(=O)=O [Example 27n]
66.6 nM | CC1(C)C(=N)N[C@](C)(c2sc(-c3cccc(OC(F)F)c3)cc2Cl)CS1(=O)=O [Example 27o]
2530 nM | CC1(C)C(=N)N[C@](C)(c2sc(-c3ccc4nncn4c3)cc2Cl)CS1(=O)=O [Example 27p]
297 nM | CC1(C)C(=N)N[C@](C)(c2sc(-c3ccc4ncnn4c3)cc2Cl)CS1(=O)=O [Example 27q]
448 nM | COCCn1cc(-c2cc(Cl)c([C@]3(C)CS(=O)(=O)C(C)(C)C(=N)N3)s2)cn1 [Example 27r]
291 nM | CC1(C)C(=N)N[C@](C)(c2sc(-c3ccc(C#N)c(C(F)(F)F)c3)cc2Cl)CS1(=O)=O [Example 27t]
71.4 nM | CC1(C)C(=N)N[C@](C)(c2sc(-c3cnc(-c4ccc(F)cc4)o3)cc2Cl)CS1(=O)=O [Example 27v]
1290 nM | COc1cncc(-c2cc(Cl)c([C@]3(C)CS(=O)(=O)C(C)(C)C(=N)N3)s2)n1 [Example 27w]
1110 nM | CC1(C)C(=N)N[C@](C)(c2sc(-c3coc(-c4ccc(F)cc4)n3)cc2Cl)CS1(=O)=O [Example 27x]
1720 nM | COc1ncc(-c2cc(Cl)c([C@]3(C)CS(=O)(=O)C(C)(C)C(=N)N3)s2)cn1 [Example 27y]
400 nM | CC1(C)C(=N)N[C@](C)(c2sc(-c3cccc(C#N)c3F)cc2Cl)CS1(=O)=O [Example 27z]
804 nM | COc1cccn2cc(-c3cc(Cl)c([C@]4(C)CS(=O)(=O)C(C)(C)C(=N)N4)s3)nc12 [Example 28a]
2630 nM | CC1(C)C(=N)N[C@](C)(c2sc(-c3cn4ccsc4n3)cc2Cl)CS1(=O)=O [Example 28b]
108 nM | COc1cccc2nc(-c3cc(Cl)c([C@]4(C)CS(=O)(=O)C(C)(C)C(=N)N4)s3)cn12 [Example 28c]
3380 nM | CC1(C)C(=N)N[C@](C)(c2nc3ccc(-c4cccnc4)cc3s2)CS1(=O)=O [Example 29a]
2330 nM | CC1(C)C(=N)N[C@](C)(c2nc3ccc(-c4ccc(F)cc4)cc3s2)CS1(=O)=O [Example 29b]

Same assay, conditions: read-out: BACE1 Ki; Ki calculated from IC50 using the Cheng-Prusoff equation

Ki | SMILES
12.8 nM | CC1(C)C(=N)N[C@](C)(c2sc(-c3cccc(-c4cnco4)c3)cc2Cl)CS1(=O)=O [Example 27c]
64.3 nM | CC1(C)C(=N)N[C@](C)(c2sc(-c3cccc(-c4ccno4)c3)cc2Cl)CS1(=O)=O [Example 27d]
